Source: PMC3847553, “Kinetic properties of “dual” orexin receptor antagonists at OX1R and OX2R orexin receptors” (Frontiers in Neuroscience, 2013)
Like-named read-outs stand apart in the source and are kept apart here.

Experiments:
mouse OX2R = target: T1, mouse OX2R (Mus musculus, UniProt P58308); test: FLIPR orexin A-stimulated calcium accumulation, mouse OX2R; type: cell-based; conditions: HEK cells
T1 construct: expressed in transfected cells; host or cells: HEK; cells from GNF, San Diego
T1 sequence (P58308 1-460): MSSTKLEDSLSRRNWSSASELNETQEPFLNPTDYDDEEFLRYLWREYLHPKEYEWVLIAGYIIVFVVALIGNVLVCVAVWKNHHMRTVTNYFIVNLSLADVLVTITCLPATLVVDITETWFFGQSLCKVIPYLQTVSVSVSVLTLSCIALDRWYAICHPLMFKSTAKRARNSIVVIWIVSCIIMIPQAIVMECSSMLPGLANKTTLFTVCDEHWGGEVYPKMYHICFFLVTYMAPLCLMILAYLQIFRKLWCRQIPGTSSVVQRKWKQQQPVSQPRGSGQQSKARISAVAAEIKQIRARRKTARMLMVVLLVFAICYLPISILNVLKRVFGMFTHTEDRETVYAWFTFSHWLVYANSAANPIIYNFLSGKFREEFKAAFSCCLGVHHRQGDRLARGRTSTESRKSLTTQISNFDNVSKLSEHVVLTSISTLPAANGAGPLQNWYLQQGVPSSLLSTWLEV
From the text: (§1) Chinese Hamster Ovary (CHO) cells stably transfected with the cDNA encoding the human OX1R (CHO-hOX1) or OX2R (CHO-hOX2) were used (kindly provided by T. Cremer and Dr. S. Geisse, NIBR Basel, Switzerland). For measurements of calcium accumulation using FLIPR® (Fluorescent Imaging Plate Reader) assay, CHO or Human Embryonic Kidney (HEK) cells stably expressing mouse, rat or human OX1R or OX2R (kindly provided by Dr. A. Chen, GNF, San Diego, CA, USA) were used. […] Cells were maintained in a humidified incubator at 37°C in 5% CO2. For crude cell membrane preparations, cells were washed and harvested in 10 mM HEPES (pH 7.5), and centrifuged at 4°C for 5 min at 2500 g. The cell pellet was either stored at −80°C or used directly.
(§2) Cells expressing either human, rat or mouse OX1R or OX2R were seeded at 8,000 cells/well in black 384 well clear bottom plates and incubated overnight at 37°C. The following day, medium was discarded and cells loaded with 50 μ l of 1 mM Fluo-4 AM (Invitrogen F14202) in dimethyl sulfoxide in working buffer (Hanks' balanced salt solution, 10 mM HEPES) and incubated for 60 min at 37°C. The loading buffer was removed and cells were washed with 100 μ l working buffer containing […], 0.1% BSA, and 2.5 mM Probenecid (pH 7.4) to remove the excess Fluo-4 AM. […] The assay plate was then transferred to the Molecular Devices-FLIPR384. The baseline calcium signal was recorded for 10 s, then the antagonist of interest was injected (10 μl at 3 times the final concentration) and the calcium signal recorded every second for 1 min, then every 2 s 40 times.

human OX1R = target: T2, human OX1R (Homo sapiens, UniProt O43613); test: FLIPR orexin A-stimulated calcium accumulation, human OX1R; type: cell-based; conditions: CHO cells
T2 construct: expressed in transfected cells; host or cells: CHO; cells from GNF, San Diego
T2 sequence (O43613 1-425): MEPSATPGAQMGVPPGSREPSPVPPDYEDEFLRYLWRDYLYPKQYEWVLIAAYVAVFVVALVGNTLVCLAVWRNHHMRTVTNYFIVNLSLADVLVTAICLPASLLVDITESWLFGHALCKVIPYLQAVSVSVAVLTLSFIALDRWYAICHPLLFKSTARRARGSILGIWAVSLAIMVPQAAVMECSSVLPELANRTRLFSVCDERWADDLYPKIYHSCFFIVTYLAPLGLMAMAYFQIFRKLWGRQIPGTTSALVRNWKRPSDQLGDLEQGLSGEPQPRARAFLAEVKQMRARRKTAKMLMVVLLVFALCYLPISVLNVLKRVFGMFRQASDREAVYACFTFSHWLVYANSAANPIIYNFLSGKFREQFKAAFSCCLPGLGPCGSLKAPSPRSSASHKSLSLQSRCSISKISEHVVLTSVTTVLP
From the text: as §1, §2

[1] = antagonist incubation 1 h, read-out: pKi (converted)
[2] = antagonist incubation 2 h, read-out: pKi (converted)
[3] = antagonist incubation 4 h, read-out: pKi (converted)
[4] = pKi, antagonist incubation 30 min
[5] = antagonist incubation 30 min, read-out: pKi (converted)

| Structure (SMILES) | Ki (mouse OX2R; [1]) | Ki (mouse OX2R; [2]) | Ki (mouse OX2R; [3]) | Ki (mouse OX2R; [4]) | Ki (human OX1R; antagonist incubation 30 min) | Ki (human OX1R; antagonist incubation 1 h) | Ki (human OX1R; antagonist incubation 2 h) | Ki (human OX1R; antagonist incubation 4 h) | Ki (mouse OX2R; [5]) | pKi (human OX1R; antagonist incubation 1 h) | pKi (human OX1R; antagonist incubation 2 h) | Ki (mouse OX2R; pKi, antagonist incubation 1 h) | Ki (mouse OX2R; pKi, antagonist incubation 2 h) | Ki (mouse OX2R; pKi, antagonist incubation 4 h) |
| --- | --- | --- | --- | --- | --- | --- | --- | --- | --- | --- | --- | --- | --- | --- |
| CNC(=O)[C@@H](c1ccccc1)N1CCc2cc(OC)c(OC)cc2[C@@H]1CCc1ccc(C(F)(F)F)cc1 [Almorexant] | 9.33 nM | 8.13 nM | 4.17 nM | 19.1 nM |  |  |  |  |  |  |  |  |  |  |
| Cc1ccc(-c2ncccn2)c(C(=O)N2C[C@H](COc3ccc(F)cn3)CC[C@H]2C)c1 [Filorexant] | 2.09 nM | 1.45 nM | 1.29 nM |  | 2.24 nM | 1.62 nM | 1.66 nM | 2.82 nM | 2.14 nM |  |  |  |  |  |
| COc1ccnc(N2CCC3(CCCN(Cc4c[nH]c5ccccc45)C3=O)CC2)n1 [IPSU, 2-((1H-Indol-3-yl)methyl)-9-(4-methoxypyrimidin-2-yl)-2,9-diazaspiro[5.5]undecan-1-one] | 79.4 nM | 55 nM | 60.3 nM |  | 479 nM |  |  | 724 nM | 70.8 nM | 6.29 −log M | 6.28 −log M |  |  |  |
| Cc1nc(C(=O)N2CCCC[C@H]2CNC(=O)c2cccc3occc23)c(-c2ccc(F)cc2)s1 [SB-649868] | 2.82 nM | 1.17 nM | 0.912 nM |  | 0.933 nM | 1.35 nM | 0.513 nM | 0.417 nM | 1.82 nM |  |  |  |  |  |
| Cc1ccc(-n2nccn2)c(C(=O)N2CCN(c3nc4cc(Cl)ccc4o3)CC[C@H]2C)c1 [Suvorexant] |  |  |  | 10.2 nM |  |  |  |  |  |  |  | 6.76 nM | 5.75 nM | 4.47 nM |
